{
  "source": "paper PMC7465353",
  "about": "“Antioxidant Effects of PS5, a Peptidomimetic of Suppressor of Cytokine Signaling 1, in Experimental Atherosclerosis” (Antioxidants, 2020)",
  "origin": "cited, not measured here",
  "test_system": "VSMCs",
  "data": [
    {"substance": "KIR peptide: peptide encompassing residues 52–67, i.e., kinase inhibitory region (KIR) of SOCS1 (DTHFRTFRSHADYRRI; UniProt O15524 52-67, looked up, fragment)", "values": [
      {"measurement": "VSMC migration, wound healing", "result": "significantly diminished the migration and proliferation"}
    ]}
  ]
}
